US9738634B2, “Heterocyclic amide compound and herbicide” (SYNGENTA PARTICIPATIONS AG, priority 2013, dated 2017)

Assays:
Type in all cases: in vivo
Details in all cases: treatment dosage 320 g/ha
barnyard grass [1] = assay: Test Example 1: weedkilling efficacy, preemergent weed treatment in the submerged state; A: barnyard grass
How it was run: (§1)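 Pots of alluvial soil flooded 4 cm deep, sown with barnyard grass, bulrush and oval-leafed pondweed and transplanted with 2.5-leaf rice. Emulsified compound applied to the water surface on sowing day at stated g/ha; greenhouse 25–30 °C, effects assessed 3 weeks after treatment.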

bulrush [2] = assay: Test Example 1: weedkilling efficacy, preemergent weed treatment in the submerged state; B: bulrush
How it was run: as §1

oval-leafed pondweed [3] = assay: Test Example 1: weedkilling efficacy, preemergent weed treatment in the submerged state; C: oval-leafed pondweed
How it was run: as §1

transplanted rice = assay: Test Example 1: preemergent weed treatment in the submerged state, effect on crop; a: transplanted rice
How it was run: as §1

barnyard grass [4] = assay: Test Example 2: weedkilling efficacy, growth period weed treatment in the submerged state; A: barnyard grass
How it was run: (§2)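 Barnyard grass, bulrush and oval-leafed pondweed sown in alluvial soil under 4 cm flooding, greenhouse 25 to 30° C. At 1-2 leaf stage, water-diluted emulsion applied to the water surface at stated g/ha dosages; effects scored 3 weeks later.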

bulrush [5] = assay: Test Example 2: weedkilling efficacy, growth period weed treatment in the submerged state; B: bulrush
How it was run: as §2

oval-leafed pondweed [6] = assay: Test Example 2: weedkilling efficacy, growth period weed treatment in the submerged state; C: oval-leafed pondweed
How it was run: as §2

crabgrass [7] = assay: Test Example 3: weedkilling efficacy through soil treatment; D: crabgrass
How it was run: (§3)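 Crop and weed responses were judged three weeks after a uniform surface spray of the water-diluted emulsion at the given g/ha rate. Seeds sat beneath about 1.5 cm of sterilized diluvial soil, and boxes stood in a greenhouse at 25 to 30° C.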

green foxtail [8] = assay: Test Example 3: weedkilling efficacy through soil treatment; E: green foxtail
How it was run: as §3

barnyard grass [9] = assay: Test Example 3: weedkilling efficacy through soil treatment; F: barnyard grass
How it was run: as §3

wild oat [10] = assay: Test Example 3: weedkilling efficacy through soil treatment; G: wild oat
How it was run: as §3

black-grass [11] = assay: Test Example 3: weedkilling efficacy through soil treatment; H: black-grass
How it was run: as §3

Italian ryegrass [12] = assay: Test Example 3: weedkilling efficacy through soil treatment; I: Italian ryegrass
How it was run: as §3

common wind-grass [13] = assay: Test Example 3: weedkilling efficacy through soil treatment; J: common wind-grass
How it was run: as §3

Indian mallow [14] = assay: Test Example 3: weedkilling efficacy through soil treatment; K: Indian mallow
How it was run: as §3

redroot pigweed [15] = assay: Test Example 3: weedkilling efficacy through soil treatment; L: redroot pigweed
How it was run: as §3

fig-leafed goosefoot = assay: Test Example 3: weedkilling efficacy through soil treatment; M: fig-leafed goosefoot
How it was run: as §3

chickweed [16] = assay: Test Example 3: weedkilling efficacy through soil treatment; N: chickweed
How it was run: as §3

catchweed [17] = assay: Test Example 3: weedkilling efficacy through soil treatment; O: catchweed
How it was run: as §3

birds-eye speedwell [18] = assay: Test Example 3: weedkilling efficacy through soil treatment; p: birds-eye speedwell
How it was run: as §3

directly sown rice [19] = assay: Test Example 3: soil treatment, effect on crop; b: directly sown rice
How it was run: as §3

corn [20] = assay: Test Example 3: soil treatment, effect on crop; c: corn
How it was run: as §3

soybean [21] = assay: Test Example 3: soil treatment, effect on crop; d: soybean
How it was run: as §3

wheat [22] = assay: Test Example 3: soil treatment, effect on crop; e: wheat
How it was run: as §3

beet [23] = assay: Test Example 3: soil treatment, effect on crop; f: beet
How it was run: as §3

rapeseed [24] = assay: Test Example 3: soil treatment, effect on crop; g: rapeseed
How it was run: as §3

crabgrass [25] = assay: Test Example 4: weedkilling efficacy by foliar treatment; D: crabgrass
How it was run: (§4)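 Seeds are spot-sown into sterilized diluvial soil and covered with about 1.5 cm of soil. After 14 days' greenhouse growth at 25 to 30° C, plants are sprayed on stems and leaves with diluted emulsion at the stated g/ha rate, then scored at 3 weeks.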

green foxtail [26] = assay: Test Example 4: weedkilling efficacy by foliar treatment; E: green foxtail
How it was run: as §4

barnyard grass [27] = assay: Test Example 4: weedkilling efficacy by foliar treatment; F: barnyard grass
How it was run: as §4

wild oat [28] = assay: Test Example 4: weedkilling efficacy by foliar treatment; G: wild oat
How it was run: as §4

black-grass [29] = assay: Test Example 4: weedkilling efficacy by foliar treatment; H: black-grass
How it was run: as §4

Italian ryegrass [30] = assay: Test Example 4: weedkilling efficacy by foliar treatment; I: Italian ryegrass
How it was run: as §4

common wind-grass [31] = assay: Test Example 4: weedkilling efficacy by foliar treatment; J: common wind-grass
How it was run: as §4

Indian mallow [32] = assay: Test Example 4: weedkilling efficacy by foliar treatment; K: Indian mallow
How it was run: as §4

redroot pigweed [33] = assay: Test Example 4: weedkilling efficacy by foliar treatment; L: redroot pigweed
How it was run: as §4

chickweed [34] = assay: Test Example 4: weedkilling efficacy by foliar treatment; N: chickweed
How it was run: as §4

catchweed [35] = assay: Test Example 4: weedkilling efficacy by foliar treatment; O: catchweed
How it was run: as §4

birds-eye speedwell [36] = assay: Test Example 4: weedkilling efficacy by foliar treatment; p: birds-eye speedwell
How it was run: as §4

directly sown rice [37] = assay: Test Example 4: foliar treatment, effect on crop; b: directly sown rice
How it was run: as §4

corn [38] = assay: Test Example 4: foliar treatment, effect on crop; c: corn
How it was run: as §4

soybean [39] = assay: Test Example 4: foliar treatment, effect on crop; d: soybean
How it was run: as §4

wheat [40] = assay: Test Example 4: foliar treatment, effect on crop; e: wheat
How it was run: as §4

beet [41] = assay: Test Example 4: foliar treatment, effect on crop; f: beet
How it was run: as §4

rapeseed [42] = assay: Test Example 4: foliar treatment, effect on crop; g: rapeseed
How it was run: as §4

CC1=C(c2ccccc2)C(=O)N(C(C)(C)C(=O)Nc2cccc(CF)n2)CO1 [B-2-56]
A (barnyard grass) weedkilling efficacy grade (barnyard grass [1]): 5 (weed kill ratio 90% or more, (practically complete withering))
B (bulrush) weedkilling efficacy grade (bulrush [2]): 5 (weed kill ratio 90% or more, (practically complete withering))
C (oval-leafed pondweed) weedkilling efficacy grade (oval-leafed pondweed [3]): 5 (weed kill ratio 90% or more, (practically complete withering))
a (transplanted rice) effect on crop grade (transplanted rice): 1 (weed kill ratio 5% or more, less than 20%)
A (barnyard grass) weedkilling efficacy grade (barnyard grass [4]): 5 (weed kill ratio 90% or more, (practically complete withering))
B (bulrush) weedkilling efficacy grade (bulrush [5]): 5 (weed kill ratio 90% or more, (practically complete withering))
C (oval-leafed pondweed) weedkilling efficacy grade (oval-leafed pondweed [6]): 5 (weed kill ratio 90% or more, (practically complete withering))
D (crabgrass) weedkilling efficacy grade (crabgrass [7]): 5 (weed kill ratio 90% or more, (practically complete withering))
E (green foxtail) weedkilling efficacy grade (green foxtail [8]): 5 (weed kill ratio 90% or more, (practically complete withering))
F (barnyard grass) weedkilling efficacy grade (barnyard grass [9]): 5 (weed kill ratio 90% or more, (practically complete withering))
G (wild oat) weedkilling efficacy grade (wild oat [10]): 3 (weed kill ratio 40% or more, less than 70%)
H (black-grass) weedkilling efficacy grade (black-grass [11]): 5 (weed kill ratio 90% or more, (practically complete withering))
I (Italian ryegrass) weedkilling efficacy grade (Italian ryegrass [12]): 5 (weed kill ratio 90% or more, (practically complete withering))
J (common wind-grass) weedkilling efficacy grade (common wind-grass [13]): 5 (weed kill ratio 90% or more, (practically complete withering))
K (Indian mallow) weedkilling efficacy grade (Indian mallow [14]): 0 (weed kill ratio 5% or less (practically no effect))
L (redroot pigweed) weedkilling efficacy grade (redroot pigweed [15]): 2 (weed kill ratio 20% or more, less than 40%)
M (fig-leafed goosefoot) weedkilling efficacy grade (fig-leafed goosefoot): 4 (weed kill ratio 70% or more, less than 90%)
N (chickweed) weedkilling efficacy grade (chickweed [16]): 4 (weed kill ratio 70% or more, less than 90%)
O (catchweed) weedkilling efficacy grade (catchweed [17]): 5 (weed kill ratio 90% or more, (practically complete withering))
P (birds-eye speedwell) weedkilling efficacy grade (birds-eye speedwell [18]): 5 (weed kill ratio 90% or more, (practically complete withering))
b (directly sown rice) effect on crop grade (directly sown rice [19]): 2 (weed kill ratio 20% or more, less than 40%)
c (corn) effect on crop grade (corn [20]): 1 (weed kill ratio 5% or more, less than 20%)
d (soybean) effect on crop grade (soybean [21]): 0 (weed kill ratio 5% or less (practically no effect))
e (wheat) effect on crop grade (wheat [22]): 1 (weed kill ratio 5% or more, less than 20%)
f (beet) effect on crop grade (beet [23]): 2 (weed kill ratio 20% or more, less than 40%)
g (rapeseed) effect on crop grade (rapeseed [24]): 1 (weed kill ratio 5% or more, less than 20%)
D (crabgrass) weedkilling efficacy grade (crabgrass [25]): 5 (weed kill ratio 90% or more, (practically complete withering))
E (green foxtail) weedkilling efficacy grade (green foxtail [26]): 5 (weed kill ratio 90% or more, (practically complete withering))
F (barnyard grass) weedkilling efficacy grade (barnyard grass [27]): 4 (weed kill ratio 70% or more, less than 90%)
G (wild oat) weedkilling efficacy grade (wild oat [28]): 5 (weed kill ratio 90% or more, (practically complete withering))
H (black-grass) weedkilling efficacy grade (black-grass [29]): 4 (weed kill ratio 70% or more, less than 90%)
I (Italian ryegrass) weedkilling efficacy grade (Italian ryegrass [30]): 5 (weed kill ratio 90% or more, (practically complete withering))
J (common wind-grass) weedkilling efficacy grade (common wind-grass [31]): 5 (weed kill ratio 90% or more, (practically complete withering))
K (Indian mallow) weedkilling efficacy grade (Indian mallow [32]): 0 (weed kill ratio 5% or less (practically no effect))
L (redroot pigweed) weedkilling efficacy grade (redroot pigweed [33]): 3 (weed kill ratio 40% or more, less than 70%)
N (chickweed) weedkilling efficacy grade (chickweed [34]): 4 (weed kill ratio 70% or more, less than 90%)
O (catchweed) weedkilling efficacy grade (catchweed [35]): 4 (weed kill ratio 70% or more, less than 90%)
P (birds-eye speedwell) weedkilling efficacy grade (birds-eye speedwell [36]): 4 (weed kill ratio 70% or more, less than 90%)
b (directly sown rice) effect on crop grade (directly sown rice [37]): 4 (weed kill ratio 70% or more, less than 90%)
c (corn) effect on crop grade (corn [38]): 5 (weed kill ratio 90% or more, (practically complete withering))
d (soybean) effect on crop grade (soybean [39]): 4 (weed kill ratio 70% or more, less than 90%)
e (wheat) effect on crop grade (wheat [40]): 3 (weed kill ratio 40% or more, less than 70%)
f (beet) effect on crop grade (beet [41]): 3 (weed kill ratio 40% or more, less than 70%)
g (rapeseed) effect on crop grade (rapeseed [42]): 3 (weed kill ratio 40% or more, less than 70%)
